These results are taken from US4977189A, “Substituted guanidinedicarbonyl derivatives” (American Cyanamid Company, priority 1988, dated 1990).

One assay concerns Royal Hart mice. Nature of the assay: Hypoxic Survival Test. It is filed as in vivo, mouse (Royal Hart). The conditions noted are these: 10% oxygen; for responders at 50 mg/kg / responders at 100 mg/kg / responders at 25 mg/kg / responders at 10 mg/kg / responders at 200 mg/kg: Mus musculus, ip, 5 min, 30 minutes prior, survival after 5 minutes, read-out: % Survivors; for responders at 50 mg/kg: 50 mg/kg intraperitoneally; for responders at 100 mg/kg: 100 mg/kg intraperitoneally; for responders at 25 mg/kg: 25 mg/kg intraperitoneally; for responders at 10 mg/kg: 10 mg/kg intraperitoneally; for responders at 200 mg/kg: 200 mg/kg intraperitoneally. As for the experimental part:
A useful in vivo test that measures how effectively central nervous system-acting drugs enhance survival in a hypoxic environment, presumably by improving the ratio of energy supply to demand is known as the Hypoxic Survival Test. […] Drugs are tested by intraperitoneally injecting groups of mice 30 minutes prior to placing them in a hypoxic mixture and measuring survival. The rationale of this test is that drugs which enhance survival under hypoxic conditions without concomitant, depression or sedative side effects, may do so by enhancing energy metabolism, or by preserving normal brain function under conditions of reduced energy metabolism. Given the dependence of the brain on a constant supply of energy, drugs which have this property may have many far-reaching therapeutic indications, including recovery from stroke and closed head injury, as well as reducing the deleterious effects of the aging central nervous system.
Groups of 20 Royal Hart mice (6 weeks of age) are injected intraperitoneally with test compound (1-200 mg/kg) 30 minutes prior to placing them in a hypoxic mixture (10% oxygen in 90% […]) and measuring survival after 5 minutes.
A separate group of 20 mice is injected intraperitoneally with saline solution (0.01 cc/g of body weight) and processed as described above.
Still another group of 20 mice is injected intraperitoneally with 0.125 mg/kg of physostigmine and processed as described above.

Assay [1] concerns Brain-Specific Receptors (3H-benzodiazepine binding). Nature of the assay: Inhibition of the Binding of 3H-Benzodiazepine to Brain-Specific Receptors of Rats. Set-up: species or system rat (male albino, Wistar strain; whole cortex). Conditions: 3H-diazepam (1.5 nM) or 3H-flunitrazepam (1.0 nM); rat cortex P2-fraction; 30 minutes in ice; test concentration not given. An excerpt: A test utilized for the determination of anxiolytic activity is the measurement of the ability of test compounds to inhibit the binding of tritiated benzodiazepines to brain-specific recptors of warm-blooded animals. A modification of the method described by R. F. Squires, et al., Nature, 266, No. 21, pg 732 (April, 1977) and H. Mohler, et al., Science, 198, pg 849 (1977) was employed.
Male albino rats (Wistar strain, weighing 150-200 g each) were used. The test compounds were solubilized in either dimethylformamide, acetic acid, ethanol or hydrochloric acid.
Whole cortex of rats was homogenized gently in 20 volumes of ice-cold 0.32M sucrose, centrifuged twice at 1000 g for 10 minutes and then recentrifuged at 30,000 g for 20 minutes to produce a crude P2 -synaptosomal fraction. The P2 -fraction was either: (1) resuspended in twice the original volume in hypotonic 50 mM Tris.HCl (pH 7.4), or (2) resuspended in one-half the original volume in hypotonic 10 mM Tris.HCl (pH 7.4) and frozen (-20° C.) until time of use. Frozen P2 preparations were thawed and resuspended in four times the original homogenizing volume at time of assay.
The binding assay consisted of 300 μl of the P2 -fraction suspension (0.2-0.4 mg protein), 100 μl of test drug and 100 μl of ^3 H-diazepam (1.5 nM, final concentration) or ^3 H-flunitrazepam (1.0 nM, final concentration) which was added to 1.5 ml of 50 mM Tris.HCl (pH 7.4). Non-specific binding controls and total binding controls d 100 μl of diazepam (3 μM final concentration) and 100 μl of deionized water, respectively, in place of the test compound. Incubation for 30 minutes proceeded in ice and was terminated by filtration, under vacuum, through glass fiber filters. The filters were washed twice with 5 ml of ice-cold 50 mM Tris.HCl (pH 7.4) and placed in scintillation vials. After drying at 50°-60° C. for 30 minutes, 10 ml of diluent was added and the radioactivity determined in a scintillation counter.
Inhibition of binding was calculated by the difference between total binding and binding in the presence of test compound, divided by the total binding, X 100.

On to `CNC(=O)Oc1ccc2c(c1)[C@]1(C)CCN(C)[C@@H]1N2C` [physostigmine, reference compound], for which the “physostigmine treated mice that survive” value in the assay with Royal Hart mice (0.125 mg/kg intraperitoneally, after 5 minutes, saline control mice 5-20%) was 60-80%.

As for `COc1ccc(C(=O)NC(=NC(=O)c2ccc(C)cc2)Nc2ccccc2C(N)=O)cc1` [N-[[[2-(Aminocarbonyl)phenyl]amino][(4-methoxybenzoyl)amino]methylene]-4-methylbenzamide], the “% Inhibition” value in assay [1] was 10%.

For the molecule `CCCCCCCCNC(=O)c1ccc(NC(=NC(=O)c2cccc(C)c2)NC(=O)c2cccc(C)c2)cc1` [N,N'-[[4-(Octylamino)carbonyl]phenyl]carbonimidoyl]bis[3-methylbenzamide]], the “% Inhibition” value in assay [1] was found to be 16%.

As for `Cc1cccc(C(=O)N=C(NC(=O)c2cccc(C)c2)Nc2ccccc2C(N)=O)c1` [N,N'-[[2-(Aminocarbonyl)phenyl]carbonimidoyl]bis[3-methylbenzamide]], in the assay with Royal Hart mice, the responders at 50 mg/kg was determined as 40% and the responders at 100 mg/kg was found to be 48%.

Take `NC(=O)c1ccc(NC(=NC(=O)c2ccc(F)cc2)NC(=O)c2ccc(Br)cc2)cc1` [N-[[[4-(Aminocarbonyl)phenyl]amino][(4-bromobenzoyl)amino]methylene]-4-fluorobenzamide]: in the assay with Royal Hart mice, the responders at 25 mg/kg turned out to be 40% and the responders at 100 mg/kg is 44%.

Take `COc1ccc(C(=O)N=C(NC(=O)c2ccc(OC)cc2)Nc2ccc(C(N)=O)cc2)cc1` [N,N'-[[4-(Aminocarbonyl)phenyl]carbonimidoyl]bis[4-methoxybenzamide]]: in assay [1], the “% Inhibition” value is 17%.

As to `NC(=O)c1ccc(NC(=NC(=O)c2cccs2)NC(=O)c2ccccc2)cc1` [N-[[[4-(Aminocarbonyl)phenyl]amino](benzoylamino)methylene]-2-thiophenecarboxamide], in the assay with Royal Hart mice, the responders at 10 mg/kg turned out to be 50% and the responders at 50 mg/kg was 50%.

As for `CCN(CC)CCNC(=NC(=O)c1ccc(C(F)(F)F)cc1)NC(=O)c1ccc(C(F)(F)F)cc1` [N,N'-[[2-(Diethylaminoethyl]carbonimidoyl]bis[4-(trifluoromethyl)benzamide], in the assay with Royal Hart mice, the responders at 10 mg/kg stood at 45%, the responders at 50 mg/kg was 70%, the responders at 100 mg/kg was 65% and the responders at 200 mg/kg was 85%.

Turning to `COc1ccc(C(=O)N=C(NC(=O)c2ccc(C)cc2)Nc2ccc(C(N)=O)cc2)cc1` [N-[[[4-(Aminocarbonyl)phenyl]amino][4-methylbenzoyl)amino]methylene]-4-methoxybenzamide], the responders at 100 mg/kg in the assay on Royal Hart mice was found to be 43%.

As for `CNC(=O)c1ccc(NC(=NC(=O)c2cccc(C)c2)NC(=O)c2cccc(C)c2)cc1` [N,N'[[4-[(Methylamino)carbonyl]phenyl]carbonimidoyl]bis[3-methylbenzamide]], the “% Inhibition” value in assay [1] is given as 17%.

On to `COc1ccc(C(=O)N=C(NC(=O)c2ccc(F)cc2)Nc2ccc(C(N)=O)cc2)cc1` [N-[[[4-(Aminocarbonyl)phenyl]amino][(4-fluorobenzoyl)amino]methylene]-4-methoxybenzamide], for which, in the assay with Royal Hart mice, the responders at 25 mg/kg was found to be 45%, the responders at 50 mg/kg stood at 60% and the responders at 100 mg/kg is 42%.

In the case of `NC(=O)c1ccc(NC(=NC(=O)Cc2ccccc2)NC(=O)c2ccccc2)cc1` [N-[[[4-(Aminocarbonyl)phenyl]amino](benzoylamino)methylene]benzeneacetamide], the “% Inhibition” value in assay [1] is listed as 22%.

With `NS(=O)(=O)c1ccc(CNC(=NC(=O)c2ccccc2)NC(=O)c2ccccc2)cc1` [N,N'-[[[4-(Aminosulfonyl)phenyl]methyl]carbonimidoyl]bisbenzamide], in the assay with Royal Hart mice, the responders at 10 mg/kg was 50% and the responders at 100 mg/kg was found to be 35%.

`Cc1cccc(C(=O)N=C(NC(=O)c2ccccc2)Nc2ccc(C(N)=O)cc2)c1` [N-[[[4-(Aminocarbonyl)phenyl]amino](benzoylamino)methylene]-3-methylbenzamide]: the “% Inhibition” value in assay [1] turned out to be 33%.

Regarding `CN(C)C(=O)c1ccc(NC(=NC(=O)c2ccccc2)NC(=O)c2ccccc2)cc1` [4-[[(Benzoylamino)(benzoylimino)methyl]amino]-N,N-dimethylbenzamide], the “% Inhibition” value in assay [1] is listed as 14%.

In the case of `Cc1cccc(C(=O)N=C(NC(=O)c2cccc(C)c2)Nc2cccc(C(N)=O)c2)c1` [N,N'-[[3-(Aminocarbonyl)phenyl]carbonimidoyl]bis[3-methylbenzamide]], the “% Inhibition” value in assay [1] was found to be 17%.

As for `COc1ccc(C(=O)NC(=NC(=O)c2ccsc2)Nc2ccc(C(N)=O)cc2)cc1` [N-[[[4-(Aminocarbonyl)phenyl]amino][(4-methoxybenzoyl)amino]methylene]-3-thiophenecarboxamide], in assay [1], the “% Inhibition” value came to 14%.

For the molecule `COc1ccc(C(=O)NC(=NC(=O)c2ccc(C)cc2)Nc2cccc(C(N)=O)c2)cc1` [N-[[[3-(Aminocarbonyl)phenyl]amino][(4-methoxybenzoyl)amino]methylene]-4-methylbenzamide], the “% Inhibition” value in assay [1] is 12%.

For the molecule `NC(=O)c1ccc(NC(=NC(=O)c2ccccc2)NC(=O)C23CC4CC(CC(C4)C2)C3)cc1` [N-[[[4-(Aminocarbonyl)phenyl]amino](benzoylamino)methylene]tricyclo[3.3.1.1^3.7]decane-1-carboxamide], the responders at 50 mg/kg in the assay on Royal Hart mice stood at 42%.

`NC(=O)c1ccc(NC(=NC(=O)c2cccc(Br)c2)NC(=O)c2ccccc2)cc1` [N-[[[4-(Aminocarbonyl)phenyl]amino](benzoylamino)methylene]-3-bromobenzamide]: the responders at 10 mg/kg in the assay with Royal Hart mice was found to be 50%.

Take `COc1ccc(C(=O)NC(=NC(=O)c2cccc(C)c2)Nc2ccc(C(N)=O)cc2)cc1` [N-[[[4-(Aminocarbonyl)phenyl]amino][(4-methoxybenzoyl)amino]methylene]-3-methylbenzamide]: in the assay with Royal Hart mice, the responders at 10 mg/kg is 50%, the responders at 50 mg/kg was 45%, the responders at 100 mg/kg turned out to be 50% and the responders at 200 mg/kg worked out at 45%.

As to `COc1ccc(C(=O)NC(=NC(=O)c2ccc(C(F)(F)F)cc2)Nc2ccc(C(N)=O)cc2)cc1` [N-[[[4-(Aminocarbonyl)phenyl]amino][(4-methoxybenzoyl)amino]methylene]-4-(trifluoromethyl)benzamide], in the assay on Royal Hart mice, the responders at 50 mg/kg came to 55% and the responders at 100 mg/kg turned out to be 47%.

Consider `NC(=O)c1ccc(NC(=NC(=O)c2ccc(C(F)(F)F)cc2)NC(=O)c2ccccc2)cc1` [N-[[[4-(Aminocarbonyl)phenyl]amino][benzoylamino]methylene]-4-(trifluoromethyl)benzamide], for which the responders at 50 mg/kg in the assay on Royal Hart mice came to 45%.

Turning to `NC(=O)c1ccc(NC(=NC(=O)c2ccc(Br)cc2)NC(=O)c2ccccc2)cc1` [N-[[[4-(Aminocarbonyl)phenyl]amino](benzoylamino)methylene]-4-bromobenzamide], in the assay with Royal Hart mice, the responders at 10 mg/kg came out at 42%, the responders at 25 mg/kg is 60% and the responders at 100 mg/kg was found to be 43%.

Turning to `COc1cc(C(=O)N=C(NC(=O)c2ccccc2)Nc2ccc(C(N)=O)cc2)cc(OC)c1OC` [N-[[[4-(Aminocarbonyl)phenyl]amino](benzoylamino)methylene]-3,4,5-trimethoxybenzamide], in the assay on Royal Hart mice, the responders at 10 mg/kg was 50% and the responders at 25 mg/kg was 50%.

In the case of `NC(=O)c1ccc(NC(=NC(=O)c2ccccc2)NC(=O)C=Cc2ccccc2)cc1` [N-[[[4-(Aminocarbonyl)phenyl]amino][(1-oxo-3-phenyl-2-propenyl)amino]methylene]benzamide], the responders at 100 mg/kg in the assay on Royal Hart mice was 40%.

What is called % Inhibition is how much of the control response was suppressed. High values mean a strong effect, low ones a weak effect.
